The text below walks through data of ChEMBL document CHEMBL3232739, “Discovery of a potent and dissociated non-steroidal glucocorticoid receptor agonist containing an alkyl carbinol pharmacophore” (Bioorg Med Chem Lett, 2014).

Usually IC50 stands for the concentration that gives 50% inhibition. The EC50 is the concentration giving half of the maximal effect. Low values mean an effect from little substance, high ones a need for much substance.

A value given as a limit tells only on which side of the number the result lay.

One data set addresses T1, Progesterone receptor (Homo sapiens, UniProt P06401).
T1 sequence (P06401 whole entry): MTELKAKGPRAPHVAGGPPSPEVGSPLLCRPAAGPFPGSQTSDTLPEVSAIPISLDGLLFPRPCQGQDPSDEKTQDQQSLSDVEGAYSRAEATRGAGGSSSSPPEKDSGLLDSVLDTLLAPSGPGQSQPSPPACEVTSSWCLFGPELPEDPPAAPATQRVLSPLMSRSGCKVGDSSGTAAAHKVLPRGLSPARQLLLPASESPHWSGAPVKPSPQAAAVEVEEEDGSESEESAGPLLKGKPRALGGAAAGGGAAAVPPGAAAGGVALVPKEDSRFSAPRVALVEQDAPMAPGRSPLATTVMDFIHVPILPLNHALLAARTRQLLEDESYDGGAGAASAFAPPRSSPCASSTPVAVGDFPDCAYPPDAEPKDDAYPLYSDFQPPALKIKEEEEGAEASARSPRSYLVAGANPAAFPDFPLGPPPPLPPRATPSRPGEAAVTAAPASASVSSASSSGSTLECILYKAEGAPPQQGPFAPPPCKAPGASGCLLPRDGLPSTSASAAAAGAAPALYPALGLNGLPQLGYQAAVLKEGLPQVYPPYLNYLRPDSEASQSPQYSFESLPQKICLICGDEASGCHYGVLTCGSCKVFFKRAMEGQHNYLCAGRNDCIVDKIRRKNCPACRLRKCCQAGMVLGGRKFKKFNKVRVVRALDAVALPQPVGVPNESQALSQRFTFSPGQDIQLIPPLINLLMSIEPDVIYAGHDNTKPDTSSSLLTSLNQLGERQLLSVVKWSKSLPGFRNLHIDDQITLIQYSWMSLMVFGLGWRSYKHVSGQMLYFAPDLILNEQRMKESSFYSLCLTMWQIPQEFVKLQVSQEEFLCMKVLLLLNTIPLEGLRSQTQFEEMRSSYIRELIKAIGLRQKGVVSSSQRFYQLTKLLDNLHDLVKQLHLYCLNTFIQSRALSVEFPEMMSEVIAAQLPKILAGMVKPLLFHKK
Put plainly: Displacement of TAMRA-labeled mifepristone from progesterone receptor (unknown origin) by fluorescence polarization assay. In general terms: Polarisation of emitted light reports the rotation of a fluorescent probe.

Data set [1] deals with T2, Mineralocorticoid receptor (Homo sapiens, UniProt P08235).
T2 sequence (P08235 whole entry): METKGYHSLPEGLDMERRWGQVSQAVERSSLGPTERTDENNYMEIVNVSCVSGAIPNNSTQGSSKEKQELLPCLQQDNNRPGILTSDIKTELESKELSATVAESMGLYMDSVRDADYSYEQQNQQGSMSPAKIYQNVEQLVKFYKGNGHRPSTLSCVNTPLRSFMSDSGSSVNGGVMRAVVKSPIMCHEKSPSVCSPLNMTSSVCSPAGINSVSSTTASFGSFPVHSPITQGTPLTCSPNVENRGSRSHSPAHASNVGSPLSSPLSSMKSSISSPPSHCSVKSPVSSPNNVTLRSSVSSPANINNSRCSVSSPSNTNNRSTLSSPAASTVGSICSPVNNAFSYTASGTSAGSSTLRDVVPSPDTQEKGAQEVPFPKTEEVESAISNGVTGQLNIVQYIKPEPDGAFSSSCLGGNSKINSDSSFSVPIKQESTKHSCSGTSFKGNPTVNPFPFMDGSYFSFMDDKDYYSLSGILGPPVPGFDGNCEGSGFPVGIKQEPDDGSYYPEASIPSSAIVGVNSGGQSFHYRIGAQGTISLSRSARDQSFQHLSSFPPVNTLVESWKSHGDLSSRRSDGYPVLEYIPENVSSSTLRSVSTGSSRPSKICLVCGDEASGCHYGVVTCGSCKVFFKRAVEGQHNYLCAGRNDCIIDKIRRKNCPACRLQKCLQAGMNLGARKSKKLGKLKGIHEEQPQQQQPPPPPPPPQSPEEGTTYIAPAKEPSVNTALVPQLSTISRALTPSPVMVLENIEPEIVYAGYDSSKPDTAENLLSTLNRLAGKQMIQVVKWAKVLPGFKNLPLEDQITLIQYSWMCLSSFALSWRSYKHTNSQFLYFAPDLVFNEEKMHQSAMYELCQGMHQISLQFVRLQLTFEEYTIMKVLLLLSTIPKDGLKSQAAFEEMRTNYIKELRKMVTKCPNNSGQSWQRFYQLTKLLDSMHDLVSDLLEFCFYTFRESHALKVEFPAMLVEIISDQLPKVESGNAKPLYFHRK
The experiment in a line: Displacement of TAMRA-labeled dexamethasone from mineralocorticoid receptor (unknown origin) by fluorescence polarization assay.

For data set [2], the target named is T3, Glucocorticoid receptor (Homo sapiens, UniProt P04150).
T3 sequence (P04150 whole entry): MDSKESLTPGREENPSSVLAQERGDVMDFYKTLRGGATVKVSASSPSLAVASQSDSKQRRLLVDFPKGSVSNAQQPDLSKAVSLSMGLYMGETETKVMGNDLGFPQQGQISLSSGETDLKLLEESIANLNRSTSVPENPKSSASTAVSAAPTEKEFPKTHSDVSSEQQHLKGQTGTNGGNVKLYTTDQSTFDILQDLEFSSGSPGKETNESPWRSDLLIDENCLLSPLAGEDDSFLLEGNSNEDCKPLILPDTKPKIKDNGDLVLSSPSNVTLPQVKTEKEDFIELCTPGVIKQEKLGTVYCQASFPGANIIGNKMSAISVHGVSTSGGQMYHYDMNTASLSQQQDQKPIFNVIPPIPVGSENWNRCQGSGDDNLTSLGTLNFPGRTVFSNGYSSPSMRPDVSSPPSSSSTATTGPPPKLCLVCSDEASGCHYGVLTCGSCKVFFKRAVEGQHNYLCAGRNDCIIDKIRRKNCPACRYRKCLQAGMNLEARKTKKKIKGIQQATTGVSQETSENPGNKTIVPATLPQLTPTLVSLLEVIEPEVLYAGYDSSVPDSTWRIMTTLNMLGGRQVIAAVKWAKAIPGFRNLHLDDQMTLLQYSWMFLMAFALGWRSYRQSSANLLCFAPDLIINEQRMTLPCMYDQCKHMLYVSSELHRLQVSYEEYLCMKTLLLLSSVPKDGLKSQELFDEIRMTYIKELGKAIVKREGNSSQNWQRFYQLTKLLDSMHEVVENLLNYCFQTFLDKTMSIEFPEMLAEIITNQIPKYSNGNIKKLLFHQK
The experiment in a line: Transactivation of glucocorticoid receptor in human HeLa cells harboring MMTV promoter at 2 uM by luciferase reporter gene assay relative to dexamethasone. The class given is cell-based. The conditions noted are these: read-out: Efficacy.

Data set [3] deals with T3, Glucocorticoid receptor.
Data set [4] has as its target T3, Glucocorticoid receptor. The source holds these as a separate data set.
Description: Agonist activity at glucocorticoid receptor in human foreskin fibroblasts assessed as inhibition of IL-1-induced IL-6 production by trans-repression assay
Data set [5] has as its target T3, Glucocorticoid receptor. This is another data set of the same source.
Description: Transactivation of glucocorticoid receptor in human HeLa cells harboring MMTV promoter by luciferase reporter gene assay
Data set [6] is filed under the species Homo sapiens. Put plainly: Selectivity ratio of IC50 for progesterone receptor (unknown origin) to IC50 for glucocorticoid receptor (unknown origin).
Data set [7] is filed under the species Homo sapiens. The experiment in a line: Selectivity ratio of IC50 for mineralocorticoid receptor (unknown origin) to IC50 for glucocorticoid receptor (unknown origin).
Data set [8] in a line: Chemical stability of the compound in aqueous solution at pH 2. The class given is physicochemical. The conditions noted are these: buffer.
Data set [9] is described as follows: Chemical stability of the compound in aqueous solution at pH 2 to 7.4 after 24 hrs. The class given is physicochemical. The conditions noted are these: buffer, pH 2, 24 h.

As for `COc1ccc(F)cc1C(C)(C)CC(O)(Cc1cc2cnccc2[nH]1)C1CC1` (stereo not drawn), the IC50 was more than 2000 nM on Progesterone receptor, 1800 nM in data set [1], 6 nM at Glucocorticoid receptor [3] and 8 nM against Glucocorticoid receptor [4]. Besides, the Emax at 2 µM on Glucocorticoid receptor [2] was found to be 20%. At Glucocorticoid receptor [5], this compound returned an EC50 of 90 nM.

As for `COc1ccc(F)cc1C(C)(C)CC(O)(Cc1cc2ccncc2[nH]1)C1CCCC1` (single isomer, unassigned), the IC50 at Progesterone receptor was more than 2000 nM; in data set [1], 1100 nM; on Glucocorticoid receptor [3] it was 26 nM; on Glucocorticoid receptor [4], more than 2000 nM.

Turning to `COc1ccc(F)cc1C(C)(C)CC(O)(Cc1cc2ccncc2[nH]1)C(C)C` (stereo not drawn), the IC50 on Progesterone receptor was more than 2000 nM; in data set [1], 1000 nM; at Glucocorticoid receptor [3], 9 nM; against Glucocorticoid receptor [4], 73 nM. In addition, the Ratio IC50 in the data set listed under Homo sapiens [6] and in the data set filed under Homo sapiens [7] was more than 100 throughout.

With `COc1ccc(F)cc1C(C)(C)CC(O)(Cc1cc2cnccc2[nH]1)C(C)(C)C` (stereo not drawn), the IC50 on Progesterone receptor was determined as 790 nM; in data set [1] it was 640 nM; on Glucocorticoid receptor [3], 4 nM; against Glucocorticoid receptor [4], 9 nM. Besides, at Glucocorticoid receptor [2], the Emax at 2 µM turned out to be 10%. Besides, at Glucocorticoid receptor [5], the EC50 is more than 2000 nM.

On to `CCC(O)(Cc1cc2ccncc2[nH]1)CC(C)(C)c1cc(F)ccc1OC` (stereo not drawn), for which the half-inhibitory concentration (IC50) on Progesterone receptor is more than 2000 nM; in [1], more than 2000 nM; against Glucocorticoid receptor [3], 51 nM; against Glucocorticoid receptor [4], 220 nM.

`COc1ccc(F)cc1C(C)(C)CC(O)(Cc1cc2ccncc2[nH]1)C1CC1` (stereo not drawn): the IC50 at Progesterone receptor is more than 2000 nM; in data set [1], more than 2000 nM; against Glucocorticoid receptor [3] it was 15 nM; against Glucocorticoid receptor [4], 47 nM. Also, the Ratio IC50 in the data set listed under Homo sapiens [6] and in the data set listed under Homo sapiens [7] was more than 100 in each case.

For the compound `Cc1ccc(F)cc1C(C)(C)CC(O)(Cc1cc2cnccc2[nH]1)C(C)(C)C` (racemic), the IC50 came to 780 nM at Progesterone receptor, 720 nM in [1], 5 nM on Glucocorticoid receptor [3] and 35 nM against Glucocorticoid receptor [4]. Also, the Emax at 2 µM at Glucocorticoid receptor [2] worked out at 1%. For the same compound, the Stability result in data set [8] and in data set [9] was “Stable” in each case. This compound also returned a concentration for a half-maximal effect (EC50) on Glucocorticoid receptor [5] of more than 2000 nM.

In the case of `COc1ccc(F)cc1C(C)(C)CC(O)(Cc1cc2ccncc2[nH]1)C(C)(C)C` (stereo not drawn), the IC50 at Progesterone receptor was 1800 nM; in [1], 1800 nM; against Glucocorticoid receptor [3], 8 nM; against Glucocorticoid receptor [4] it was 36 nM. Further, the Ratio IC50 in the data set listed under Homo sapiens [6] and in the data set filed under Homo sapiens [7] was more than 100 in each case.

`COc1ccc(F)cc1C(C)(C)CC(O)(Cc1cc2ccncc2[nH]1)C1CCC1` (stereo not drawn): the IC50 is more than 2000 nM on Progesterone receptor, more than 2000 nM in [1], 17 nM at Glucocorticoid receptor [3] and 260 nM against Glucocorticoid receptor [4].

`Cc1ccc(F)cc1C(C)(C)C[C@](O)(Cc1cc2cnccc2[nH]1)C(C)(C)C`: the IC50 at Progesterone receptor was more than 2000 nM; in data set [1], 1300 nM; against Glucocorticoid receptor [3], 1300 nM.

Turning to `COc1ccc(F)cc1C(C)(C)CC(O)(Cc1cc2ccncc2[nH]1)C(F)(F)F` (stereo not drawn), the IC50 was more than 2000 nM on Progesterone receptor, 4 nM on Glucocorticoid receptor [3] and 10 nM on Glucocorticoid receptor [4].

For the compound `CCC(C)(C)C(O)(Cc1cc2ccncc2[nH]1)CC(C)(C)c1cc(F)ccc1OC` (stereo not drawn), the IC50 at Progesterone receptor was more than 2000 nM; in [1] it was 1900 nM; against Glucocorticoid receptor [3], 13 nM; against Glucocorticoid receptor [4], more than 2000 nM. Besides, the Ratio IC50 in the data set filed under Homo sapiens [6] and in the data set listed under Homo sapiens [7] was more than 100 each time.

Take `Cc1ccc(F)cc1C(C)(C)CC(O)(Cc1cc2cnccc2[nH]1)C1CC1` (stereo not drawn): the IC50 is more than 2000 nM on Progesterone receptor, 1550 nM in data set [1], 9 nM against Glucocorticoid receptor [3] and 24 nM on Glucocorticoid receptor [4]. Also, the Emax at 2 µM on Glucocorticoid receptor [2] came out at 11%. In [8], the Stability result is reported as “Unstable”. On Glucocorticoid receptor [5], the EC50 is more than 2000 nM.

`COc1ccc(F)cc1C(C)(C)CC(C)(O)Cc1cc2ccncc2[nH]1` (stereo not drawn): the IC50 on Progesterone receptor is more than 2000 nM; in data set [1], more than 2000 nM; on Glucocorticoid receptor [3], 230 nM; against Glucocorticoid receptor [4], more than 2000 nM.
